Results taken from patent US9340809B2, “Microbial conversion of sugar acids and means therein” (VALTION […] TUTKIMUSKESUS, priority 2005, dated 2016).

Experiments:
[1] = biological target: T1, L-galactonic acid dehydratase (Trichoderma reesei, UniProt Q0QWS4); experiment: specificity test of L-galactonic acid dehydratase in yeast extract of strain H3350, formation of reducing sugars; assay type: biochemical, Hypocrea jecorina (Trichoderma reesei); settings: yeast extract of S. cerevisiae strain H3350 expressing lgd1; formation of reducing sugars followed
T1 construct: made in house; host or cells: Saccharomyces cerevisiae strain H3350 (DSM 17214), crude yeast extract
T1 sequence (Q0QWS4 1-450): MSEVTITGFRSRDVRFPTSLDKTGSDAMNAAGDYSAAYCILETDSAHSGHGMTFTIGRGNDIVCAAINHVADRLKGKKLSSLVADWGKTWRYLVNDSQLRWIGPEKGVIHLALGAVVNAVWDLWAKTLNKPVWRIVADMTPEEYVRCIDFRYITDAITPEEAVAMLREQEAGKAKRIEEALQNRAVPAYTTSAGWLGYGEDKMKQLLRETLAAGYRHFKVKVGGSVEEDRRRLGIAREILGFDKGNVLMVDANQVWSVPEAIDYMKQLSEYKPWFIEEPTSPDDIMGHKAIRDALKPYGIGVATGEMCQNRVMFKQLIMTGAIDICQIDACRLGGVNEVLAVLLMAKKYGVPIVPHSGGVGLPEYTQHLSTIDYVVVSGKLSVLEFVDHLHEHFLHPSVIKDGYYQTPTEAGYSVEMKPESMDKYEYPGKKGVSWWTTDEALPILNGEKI
Source text: The resulting vector was then transformed to a strain of Saccharomyces cerevisiae. The resulting S. cerevisiae strain was then disintegrated by vortexing with glass beads and the yeast extract analyzed for L-galactonic acid dehydratase activity. To assay the L-galactonic acid dehydratase activity L-galactonic acid was mixed with the yeast extract and formation of reducing sugars followed using standard protocols. (Bernfeld, P. (1955) “Amylases, α and β,” In: Methods In Enzymology, vol. 1, Colovick S. P., Kaplan, N. O. (eds.) Academic Press NY, pp 149-158).
To test the specificity of the enzyme the yeast extract as described before was mixed with the sugar acids D-gluconic acid, D-arabonic acid, D-xylonic acid, L-gulonic acid and L-galactonic acid. We followed the formation of reducing sugars as described in the example 1.

[2] = biological target: T1, L-galactonic acid dehydratase; experiment: conversion of L-galactonic acid by yeast extract of strain H3350, product quantified as 2-keto-3-deoxy sugar acid in a chemical assay; assay type: biochemical, Hypocrea jecorina (Trichoderma reesei); settings: after 21 hours; protein concentration of yeast extract 0.15 g/l; initial L-galactonic acid concentration 10 mM
Procedure: L-galactonic acid was mixed with the yeast extract of strain H3350 as described in example 1. The reaction product was identified as a 2-keto-3-deoxy sugar acid in a chemical assay and quantified as described by Buchanan et al. (1999) Biochem. J., 343:563-570. The protein concentration of the yeast extract in the reaction medium was 0.15 g/l and the initial L-galactonic acid concentration 10 mM. After 21 hours 1.04 mM of L-threo-3-deoxy-hexulosonic acid was formed.

SMILES | enzyme activity with the sugar acid as substrate [1] | L-threo-3-deoxy-hexulosonic acid formed [2]
O=C(O)[C@@H](O)[C@H](O)[C@H](O)CO [D-arabonic acid] | Activity was observed | –
O=C(O)[C@H](O)[C@@H](O)[C@H](O)[C@H](O)CO [D-gluconic acid] | does not exhibit activity | –
O=C(O)[C@H](O)[C@@H](O)[C@H](O)CO [D-xylonic acid] | does not exhibit activity | –
O=C(O)[C@@H](O)[C@H](O)[C@H](O)[C@@H](O)CO [L-galactonic acid] | Activity was observed | 1.04 mM
